{"source": "paper PMC8279409", "about": "“Novel Mixed NOP/Opioid Receptor Peptide Agonists” (Journal of Medicinal Chemistry, 2021)", "key": {"human mu receptor [1]": {"target": "T1, human mu receptor (Homo sapiens, UniProt P35372)", "T1 construct": "expressed in transfected cells; host or cells: CHO cells stably coexpressing the receptor and chimeric Gαqi5", "T1 sequence (P35372 whole entry)": "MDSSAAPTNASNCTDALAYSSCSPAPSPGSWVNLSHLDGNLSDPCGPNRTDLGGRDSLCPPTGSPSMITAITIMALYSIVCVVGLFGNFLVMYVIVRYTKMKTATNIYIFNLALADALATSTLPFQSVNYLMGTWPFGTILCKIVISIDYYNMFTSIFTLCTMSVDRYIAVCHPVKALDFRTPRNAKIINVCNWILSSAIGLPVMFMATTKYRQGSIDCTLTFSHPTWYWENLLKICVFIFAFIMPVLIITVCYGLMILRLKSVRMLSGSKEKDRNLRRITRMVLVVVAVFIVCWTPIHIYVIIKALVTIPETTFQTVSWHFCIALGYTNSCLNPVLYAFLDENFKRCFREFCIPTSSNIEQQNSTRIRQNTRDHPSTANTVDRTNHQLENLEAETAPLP", "assay": "Dynamic mass redistribution (DMR), mu receptor", "type": "cell-based", "conditions": "for mu Emax ± S.E.M.: maximum picometer (pm) modification (peak), mean ± SEM of at least three experiments in duplicate", "experimental": "(§1) CHO cells stably expressing the human NOP and mu receptors were kindly provided by D.G. Lambert (University of Leicester, UK). Cells were cultured in DMEM/F-12 medium supplemented with 10% FBS, 100 U/mL penicillin, 100 μg/mL streptomycin, and 2 mmol/L L-glutamine. The medium was supplemented with 400 μg/mL G418 to maintain expression. Cells were cultured at 37 °C in 5% CO2 humidified air. For DMR measurements, the label-free EnSight Multimode Plate Reader (Perkin Elmer, MA, US) was used. Cells were seeded 15,000 cells/well in a volume of 30 μL onto fibronectin-coated 384-well DMR microplates and cultured for 20 h to obtain confluent monolayers. Cells were starved in the assay buffer (HBSS with 20 mM HEPES, 0.01% BSA fraction V) for 90 min before the test. Serial dilutions were made in the assay buffer. After reading the baseline, compounds were added in a volume of 10 μL; then, DMR changes were recorded for 60 min. Responses were described as picometer (pm) shifts over time (sec) following subtraction of values from vehicle-treated wells. Maximum picometer (pm) modification (peak) was used to generate concentration response curves. All the experiments were carried out at 37 °C.\n(§2) The pharmacological terminology adopted in this paper is consistent with IUPHAR recommendations.[59] All data are expressed as the mean ± standard error of the mean (SEM) of at least three experiments performed in duplicate. […] Concentration-response curves to agonists were fitted to the classical four-parameter logistic nonlinear regression model:\n(§3) Effect = Baseline + (Emax – Baseline)/(1 + 10^(LogEC50 – Log[compound]) × Hillslope). Curve fitting was performed using PRISM 6.0 (GraphPad Software Inc., San Diego)."}, "human mu receptor [2]": {"target": "T1, human mu receptor", "assay": "Calcium mobilization, mu opioid receptor", "type": "cell-based", "conditions": "for Emax: mean ± SEM of at least three experiments in duplicate; for mu pEC50 (CL95%): Table 2 series, CHO cells coexpressing human mu receptor and Gαqi5, Fluo-4 AM, 37 °C, mean of at least three experiments in duplicate, CL95% in brackets"}, "human NOP receptor [3]": {"target": "T2, human NOP receptor (Homo sapiens, UniProt P41146)", "T2 construct": "expressed in transfected cells; host or cells: CHO cells stably coexpressing the receptor and chimeric Gαqi5", "T2 sequence (P41146 whole entry)": "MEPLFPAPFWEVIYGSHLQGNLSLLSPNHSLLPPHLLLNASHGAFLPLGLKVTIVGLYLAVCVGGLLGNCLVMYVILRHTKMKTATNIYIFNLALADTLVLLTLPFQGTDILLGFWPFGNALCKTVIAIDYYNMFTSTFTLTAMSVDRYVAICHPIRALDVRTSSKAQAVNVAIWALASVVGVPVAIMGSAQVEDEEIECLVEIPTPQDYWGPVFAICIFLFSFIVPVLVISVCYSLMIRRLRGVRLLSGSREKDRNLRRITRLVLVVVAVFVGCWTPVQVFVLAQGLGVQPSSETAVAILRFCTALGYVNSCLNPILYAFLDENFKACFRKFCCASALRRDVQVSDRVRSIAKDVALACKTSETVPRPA", "assay": "Dynamic mass redistribution (DMR), NOP receptor", "type": "cell-based", "experimental": "as §1, with “All the experiments were carried out at 37 °C.” left out\nThe pharmacological terminology adopted in this paper is consistent with IUPHAR recommendations.[59] All data are expressed as the mean ± standard error of the mean (SEM) of at least three experiments performed in duplicate. […]"}, "human NOP receptor [4]": {"target": "T2, human NOP receptor", "assay": "Calcium mobilization, NOP receptor", "type": "cell-based", "conditions": "for NOP pEC50 (CL95%): CHO cells coexpressing human NOP and Gαqi5, Fluo-4 AM, 37 °C, mean of at least three experiments in duplicate, CL95% in brackets; for NOP Emax ± S.E.M. / Emax: mean ± SEM of at least three experiments in duplicate; for NOP/mu CR (concentration ratio): calcium mobilization, NOP versus mu; for Emax: read-out: NOP Emax ± S.E.M., Table 2 series, SEM", "experimental": "CHO cells stably coexpressing the human NOP or kappa or the mu receptor and the C-terminally modified Gαqi5 and CHO cells coexpressing the delta receptor and the GαqG66Di5 protein were generated and cultured as described previously.[45],[46] Cells were maintained in Dulbecco’s modified Eagle’s medium/nutrient mixture F-12 (DEMEM/F-12) supplemented with 10% FBS, 100 U/mL penicillin and 100 μg/mL streptomycin, 100 μg/mL hygromicin B, and 200 μg/mL G418 and cultured at 37 °C in 5% CO2 humidified air. Cells were seeded at a density of 50,000 cells/well into 96-well black, clear-bottom plates. The following day, the cells were incubated with Hanks’ balanced salt solution (HBSS) supplemented with 2.5 mM probenecid, 3 μM of the calcium-sensitive fluorescent dye Fluo-4 AM, and 0.01% pluronic acid for 30 min at 37 °C. After that time, the loading solution was aspirated and 100 μL/well of HBSS supplemented with 20 mM HEPES, 2.5 mM probenecid, and 500 μM brilliant black was added. Serial dilutions were carried out in HBSS/HEPES (20 mM) buffer (containing 0.02% BSA fraction V). After placing both plates (cell culture and master plate) into the fluorometric imaging plate reader FlexStation II (Molecular Devices, Sunnyvale, CA), fluorescence changes were measured. On-line additions were carried out in a volume of 50 μL/well. To facilitate drug diffusion into the wells, the present studies were performed at 37 °C. Maximum change in fluorescence, expressed as percent over the baseline fluorescence, was used to determine agonist response.\nas §2, §3"}, "[5]": {"system": "NOP, mu, kappa, delta receptors", "conditions": "functional studies with human recombinant receptors; cited from earlier work", "excerpt": "Finally, the effects of [Dmt^1,5]N/OFQ(1-13)-NH2 at kappa and delta opioid receptors were investigated. […] Of note, the kappa potency of [Dmt^1,5]N/OFQ(1-13)-NH2 was similar to that shown at NOP and mu receptors. […] Moreover, similar results have b ..."}, "[6]": {"conditions": "read-out: mu Emax ± S.E.M., Table 2 series, percent over the baseline fluorescence, SEM"}, "[7]": {"conditions": "molecular formula strings CSV, repeats calcium mobilization values of Tables 1-3"}, "[8]": {"conditions": "percent over the baseline fluorescence"}}, "note": "Read-outs that look alike come from different tables or passages of the source. Where a SMILES comes first, the peptide text is derived from it. [ ]: non-standard residue; d: D form. 1Nal = N[C@@H](Cc1cccc2ccccc12)C(=O)O; 2Nal = N[C@@H](Cc1ccc2ccccc2c1)C(=O)O", "data": [{"molecule": "CC(C)C[C@H](NC(=O)[C@H](CCCCN)NC(=O)[C@H](CCCNC(=N)N)NC(=O)[C@H](C)NC(=O)[C@H](CO)NC(=O)[C@H](CCCCN)NC(=O)[C@H](CCCNC(=N)N)NC(=O)[C@H](C)NC(=O)CNC(=O)[C@@H](NC(=O)[C@H](Cc1ccccc1)NC(=O)CNC(=O)CNC(=O)[C@@H](N)Cc1ccccc1)[C@@H](C)O)C(=O)N[C@@H](C)C(=O)N[C@@H](CC(N)=O)C(=O)N[C@@H](CCC(N)=O)C(=O)O", "note": "[Compound 36, N/OFQ]", "values": [{"measurement": "mu pEC50 (CL95%)", "setting": "human mu receptor [1]; DMR, CHO cells expressing human mu receptor, 60 min, 37 °C, mean of at least three experiments in duplicate, CL95% in brackets", "result": "inactive"}, {"measurement": "mu Emax ± S.E.M.", "setting": "human mu receptor [1]; DMR", "result": "inactive"}, {"measurement": "pEC50_mu", "setting": "human mu receptor [1]; molecular formula strings CSV, value of Compound_36 repeats the DMR result of Table 4", "result": "inactive"}]}, {"molecule": "C[C@@H](NC(=O)[C@@H](N)Cc1ccc(O)cc1)C(=O)N[C@@H](Cc1ccccc1)C(=O)NCC(=O)N[C@@H](Cc1ccc(O)cc1)C(=O)N1CCC[C@H]1C(=O)N[C@@H](CO)C(N)=O", "note": "[Compound 2, dermorphin, reference compound]", "values": [{"measurement": "Emax", "setting": "human mu receptor [2]; read-out: mu Emax ± S.E.M, Table 1 series, percent over the baseline fluorescence, SEM", "result": "380 ± 15", "unit": "%"}, {"measurement": "Emax", "setting": "human mu receptor [2]; [6]", "result": "306 ± 23", "unit": "%"}, {"measurement": "Emax", "setting": "human mu receptor [2]; read-out: mu Emax ± S.E.M., Table 3 series, percent over the baseline fluorescence, SEM", "result": "359 ± 18", "unit": "%"}, {"measurement": "NOP pEC50 (CL95%)", "setting": "human NOP receptor [3]; CHO cells expressing human NOP, label-free EnSight reader, 60 min, 37 °C, mean of at least three experiments in duplicate, CL95% in brackets", "result": "inactive"}, {"measurement": "NOP Emax ± S.E.M.", "setting": "human NOP receptor [3]; maximum picometer (pm) modification (peak), mean ± SEM of at least three experiments in duplicate", "result": "inactive"}, {"measurement": "mu Emax ± S.E.M.", "setting": "human mu receptor [1]; DMR, SEM", "result": "151 ± 16"}, {"measurement": "NOP pEC50 (CL95%)", "setting": "human NOP receptor [4]; Table 1 series, FlexStation II", "result": "inactive"}, {"measurement": "NOP Emax ± S.E.M.", "setting": "human NOP receptor [4]; Table 1 series, maximum change in fluorescence as percent over the baseline fluorescence", "result": "inactive"}, {"measurement": "NOP pEC50 (CL95%)", "setting": "human NOP receptor [4]; Table 2 series", "result": "inactive"}, {"measurement": "NOP Emax ± S.E.M.", "setting": "human NOP receptor [4]; Table 2 series, percent over the baseline fluorescence", "result": "inactive"}, {"measurement": "NOP pEC50 (CL95%)", "setting": "human NOP receptor [4]; Table 3 series", "result": "inactive"}, {"measurement": "NOP Emax ± S.E.M.", "setting": "human NOP receptor [4]; Table 3 series, percent over the baseline fluorescence", "result": "inactive"}, {"measurement": "pEC50_NOP", "setting": "human NOP receptor [4]; [7]", "result": "inactive"}]}, {"molecule": "[Dmt^1]N/OFQ(1-13)-NH2", "values": [{"measurement": "rank order of potency", "setting": "[5]", "result": "NOP = mu > kappa > delta"}]}, {"molecule": "C[C@H](NC(=O)CNC(=O)[C@H](Cc1ccc2ccccc2c1)NC(=O)[C@H](Cc1ccccc1)NC(=O)CNC(=O)CNC(=O)[C@@H](N)Cc1ccc(O)cc1)C(=O)N[C@@H](CCCNC(=N)N)C(=O)N[C@@H](CCCCN)C(=O)N[C@@H](CO)C(=O)N[C@@H](C)C(=O)N[C@@H](CCCNC(=N)N)C(=O)N[C@@H](CCCCN)C(N)=O", "note": "[Compound 26, [Tyr^1,2Nal^5]N/OFQ(1-13)-NH2] (H-YGGF[2Nal]GARKSARK-NH2)", "values": [{"measurement": "mu pEC50 (CL95%)", "setting": "human mu receptor [2]", "result": "crc incomplete; 10 μM: 244 ± 10"}, {"measurement": "pEC50_mu", "setting": "human mu receptor [2]; [7]", "result": "crc incomplete"}, {"measurement": "activation at 10 µM", "setting": "human mu receptor [2]; read-out: mu effect at 10 μM (crc incomplete), Table 2 series, 10 μM, percent over the baseline fluorescence, mean ± SEM, SEM", "result": "244 ± 10", "unit": "%"}, {"measurement": "NOP pEC50 (CL95%)", "setting": "human NOP receptor [4]; Table 2 series", "result": "6.82 (6.60–7.04)"}, {"measurement": "NOP/mu CR (concentration ratio)", "setting": "human NOP receptor [4]; Table 2 series", "result": 0.19}, {"measurement": "Emax", "setting": "human NOP receptor [4]; [8]", "result": "266 ± 15", "unit": "%"}]}, {"molecule": "C[C@H](NC(=O)CNC(=O)[C@H](Cc1cccc2ccccc12)NC(=O)[C@H](Cc1ccccc1)NC(=O)CNC(=O)CNC(=O)[C@@H](N)Cc1ccc(O)cc1)C(=O)N[C@@H](CCCNC(=N)N)C(=O)N[C@@H](CCCCN)C(=O)N[C@@H](CO)C(=O)N[C@@H](C)C(=O)N[C@@H](CCCNC(=N)N)C(=O)N[C@@H](CCCCN)C(N)=O", "note": "[Compound 25, [Tyr^1,1Nal^5]N/OFQ(1-13)-NH2] (H-YGGF[1Nal]GARKSARK-NH2)", "values": [{"measurement": "mu pEC50 (CL95%)", "setting": "human mu receptor [2]", "result": "6.08 (5.67–6.49)"}, {"measurement": "Emax", "setting": "human mu receptor [2]; [6]", "result": "319 ± 31", "unit": "%"}, {"measurement": "NOP pEC50 (CL95%)", "setting": "human NOP receptor [4]; Table 2 series", "result": "7.17 (6.82–7.52)"}, {"measurement": "NOP/mu CR (concentration ratio)", "setting": "human NOP receptor [4]; Table 2 series", "result": 0.08}, {"measurement": "Emax", "setting": "human NOP receptor [4]; [8]", "result": "245 ± 16", "unit": "%"}]}]}
